Experimental data as given in patent US12077503B2, “Substituted cyclic amides and their use as herbicides” (FMC CORPORATION, priority 2015, dated 2024).
Like-named read-outs stand apart in the source and are kept apart here.

Tests used:
Assay type in all cases: in vivo
[1] = tested on: ducksalad (Heteranthera limosa); experiment: Test B flooded paddy test; conditions: Heteranthera limosa, 250 g ai/ha, Flood, read-out: Ducksalad plant response rating
How it was run: (§1)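 Flooding to 3 cm over soil accompanied treatment, which consisted of adding compound to the standing water around 2-leaf plants; depth was then maintained. Visual assessment versus controls followed at 13 to 15 d (scale 0–100, 0 meaning no effect).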

[2] = tested on: sedge, umbrella (small-flower umbrella sedge, Cyperus difformis); experiment: Test B flooded paddy test; conditions: Cyperus difformis, 250 g ai/ha, Flood, read-out: Sedge, Umbrella plant response rating
How it was run: as §1

[3] = tested on: barnyardgrass (Echinochloa crus-galli); experiment: Test B flooded paddy test; conditions: Echinochloa crus-galli, 250 g ai/ha, Flood, read-out: Barnyardgrass plant response rating
How it was run: as §1

[4] = tested on: rice (Oryra sativa); experiment: Test B flooded paddy test; conditions: Oryza sativa, 250 g ai/ha, Flood, read-out: Rice plant response rating
How it was run: as §1

[5] = tested on: pigweed (Amaranthus retroflexus); experiment: Test A preemergence; conditions: Amaranthus retroflexus, pre-emergence, 240 h; for pest or weed control at 125 g/ha: 125 g ai/ha; for pest or weed control at 500 g/ha: 500 g ai/ha
[6] = tested on: corn (Zea mays); experiment: Test A postemergence; conditions: Zea mays, post-emergence, 240 h
How it was run: (§2)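 Seeds sprayed preemergence with a directed soil spray, or plants at 2 to 10 cm height and one- to two-leaf stage sprayed postemergence, with test chemicals in a non-phytotoxic solvent mixture containing surfactant, in loam soil–sand blend. Injury rated visually against untreated controls after about 10 d in greenhouse, 0 (no effect) to 100 (complete control).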

[7] = tested on: pigweed (Amaranthus retroflexus); experiment: Test A postemergence; conditions: Amaranthus retroflexus, post-emergence, 240 h; for pest or weed control at 125 g/ha: 125 g ai/ha
How it was run: as §2

[8] = tested on: ryegrass, Italian (Italian ryegrass, Lolium multiflorum); experiment: Test A postemergence; conditions: Lolium multiflorum, post-emergence, 240 h; for pest or weed control at 125 g/ha: 125 g ai/ha
How it was run: as §2

[9] = tested on: blackgrass (Alopecurus myosuroides); experiment: Test A postemergence; conditions: Alopecurus myosuroides, post-emergence, 240 h; for pest or weed control at 125 g/ha: 125 g ai/ha
How it was run: as §2

[10] = tested on: Galium (catchweed bedstraw, Galium aparine); experiment: Test A postemergence; conditions: Galium, post-emergence, 240 h; for pest or weed control at 125 g/ha: 125 g ai/ha
How it was run: as §2

[11] = tested on: Kochia (Kochia scoparia); experiment: Test A postemergence; conditions: Bassia scoparia, post-emergence, 240 h; for pest or weed control at 125 g/ha: 125 g ai/ha
How it was run: as §2

[12] = tested on: barnyardgrass (Echinochloa crus-galli); experiment: Test A postemergence; conditions: Echinochloa crus-galli, post-emergence, 240 h; for pest or weed control at 125 g/ha: 125 g ai/ha
How it was run: as §2

[13] = tested on: giant foxtail (Setaria faberii); experiment: Test A postemergence; conditions: Setaria faberi, post-emergence, 240 h; for pest or weed control at 125 g/ha: 125 g ai/ha
How it was run: as §2

[14] = tested on: ragweed (common ragweed, Ambrosia elatior); experiment: Test A postemergence; conditions: Ambrosia artemisiifolia, post-emergence, 240 h; for pest or weed control at 125 g/ha: 125 g ai/ha
How it was run: as §2

[15] = tested on: wheat (Triticum aestivum); experiment: Test A postemergence; conditions: Triticum aestivum, post-emergence, 240 h; for plant injury at 125 g/ha: 125 g ai/ha
How it was run: as §2

[16] = 0 to 100 scale where 0 is no effect and 100 is complete control
[17] = scale of 0 to 100 where 0 is no effect and 100 is complete control

CN1C[C@H](c2ccc(C(F)(F)F)cc2)[C@](F)(C(=O)Nc2cccc(F)c2F)C1=O (racemic) [Compound 1152]
pest or weed control at 250 g/ha [1, 16]: 0%
pest or weed control at 250 g/ha [2, 16]: 0%
pest or weed control at 250 g/ha [3, 16]: 0%
pest or weed control at 250 g/ha [4, 16]: 0%
pest or weed control at 125 g/ha ([5]; preemergence, 0 to 100 scale where 0 is no effect and 100 is complete control, approx. 10 d, read-out: Pigweed plant response rating): 60%
pest or weed control at 500 g/ha ([5]; preemergence, 0 to 100 scale where 0 is no effect and 100 is complete control, read-out: Pigweed plant response rating): 80%
plant injury at 125 g/ha ([6]; 125 g ai/ha, postemergence, visual injury on 0 to 100 scale (0 no effect, 100 complete control), approx. 10 d, read-out: Corn plant response rating): 0%
plant injury at 500 g/ha ([6]; 500 g ai/ha, postemergence, 0 to 100 scale, 0 is no effect, 100 is complete control, read-out: Corn plant response rating): 0%
pest or weed control at 125 g/ha ([7]; postemergence, visual injury vs untreated controls after approx. 10 d, 0 = no effect, 100 = complete control, read-out: Pigweed plant response rating (0 to 100 scale)): 0%
pest or weed control at 500 g/ha ([7]; 500 g ai/ha, postemergence, 0 to 100 scale, 0 is no effect, 100 is complete control, read-out: Pigweed plant response rating): 0%
pest or weed control at 125 g/ha ([8]; postemergence, visual injury vs untreated controls after approx. 10 d, 0 = no effect, 100 = complete control, read-out: Ryegrass, Italian plant response rating (0 to 100 scale)): 0%
pest or weed control at 500 g/ha ([8]; 500 g ai/ha, postemergence, 0 to 100 scale, 0 is no effect, 100 is complete control, read-out: Ryegrass, Italian plant response rating): 0%
pest or weed control at 125 g/ha ([9]; postemergence, visual injury on 0 to 100 scale (0 no effect, 100 complete control), approx. 10 d, read-out: Blackgrass plant response rating): 0%
pest or weed control at 500 g/ha ([9]; 500 g ai/ha, postemergence, 0 to 100 scale, 0 is no effect, 100 is complete control, read-out: Blackgrass plant response rating): 0%
pest or weed control at 125 g/ha ([10]; postemergence, visual injury on 0 to 100 scale (0 no effect, 100 complete control), approx. 10 d, read-out: Galium plant response rating): 0%
pest or weed control at 500 g/ha ([10]; 500 g ai/ha, postemergence, 0 to 100 scale, 0 is no effect, 100 is complete control, read-out: Galium plant response rating): 20%
pest or weed control at 125 g/ha ([11]; postemergence, visual injury on 0 to 100 scale (0 no effect, 100 complete control), approx. 10 d, read-out: Kochia plant response rating): 0%
pest or weed control at 500 g/ha ([11]; 500 g ai/ha, postemergence, 0 to 100 scale, 0 is no effect, 100 is complete control, read-out: Kochia plant response rating): 0%
pest or weed control at 125 g/ha ([12]; postemergence, visual injury on 0 to 100 scale (0 no effect, 100 complete control), approx. 10 d, read-out: Barnyardgrass plant response rating): 0%
pest or weed control at 500 g/ha ([12]; 500 g ai/ha, postemergence, 0 to 100 scale, 0 is no effect, 100 is complete control, read-out: Barnyardgrass plant response rating): 0%
pest or weed control at 125 g/ha ([13]; postemergence, visual injury on 0 to 100 scale (0 no effect, 100 complete control), approx. 10 d, read-out: Foxtail, Giant plant response rating): 20%
pest or weed control at 500 g/ha ([13]; 500 g ai/ha, postemergence, 0 to 100 scale, 0 is no effect, 100 is complete control, read-out: Foxtail, Giant plant response rating): 40%
pest or weed control at 125 g/ha ([14]; postemergence, visual injury vs untreated controls after approx. 10 d, 0 = no effect, 100 = complete control, read-out: Ragweed plant response rating (0 to 100 scale)): 0%
pest or weed control at 500 g/ha ([14]; 500 g ai/ha, postemergence, 0 to 100 scale, 0 is no effect, 100 is complete control, read-out: Ragweed plant response rating): 0%
plant injury at 125 g/ha ([15]; postemergence, visual injury vs untreated controls after approx. 10 d, 0 = no effect, 100 = complete control, read-out: Wheat plant response rating (0 to 100 scale)): 0%
plant injury at 500 g/ha ([15]; 500 g ai/ha, postemergence, 0 to 100 scale, 0 is no effect, 100 is complete control, read-out: Wheat plant response rating): 0%

CN1C[C@H](c2csc(C(F)(F)F)c2)[C@@H](C(=O)Nc2cccc(F)c2F)C1=O [Compound 959]
pest or weed control at 250 g/ha [1, 17]: 100%
pest or weed control at 250 g/ha [2, 17]: 0%
pest or weed control at 250 g/ha [3, 17]: 60%
pest or weed control at 250 g/ha [4, 17]: 20%
pest or weed control at 125 g/ha ([5]; Preemergence, visual injury rating after approximately 10 d, read-out: Pigweed plant response rating (0 to 100 scale, 0 is no effect, 100 is complete control)): 0%
pest or weed control at 500 g/ha ([5]; preemergence, visual injury rating about 10 d after treatment, 0 to 100 scale (0 no effect, 100 complete control), read-out: Pigweed plant response rating): 30%
Corn plant response rating (crop injury, 0 = no effect, 100 = complete kill) at 125 g/ha ([6]; 125 g ai/ha, Postemergence, visual injury after approximately 10 d, 0 to 100 scale where 0 is no effect and 100 is complete control): 30%
pest or weed control at 125 g/ha ([7]; Postemergence, visual injury after approximately 10 d, 0 to 100 scale where 0 is no effect and 100 is complete control, read-out: Plant response rating, Pigweed): 0%
pest or weed control at 125 g/ha ([8]; Postemergence, visual injury after approximately 10 d, 0 to 100 scale where 0 is no effect and 100 is complete control, read-out: Plant response rating, Ryegrass, Italian): 30%
pest or weed control at 125 g/ha ([9]; Postemergence, visual injury after approximately 10 d, 0 to 100 scale where 0 is no effect and 100 is complete control, read-out: Plant response rating, Blackgrass): 30%
pest or weed control at 125 g/ha ([10]; Postemergence, visual injury after approximately 10 d, 0 to 100 scale where 0 is no effect and 100 is complete control, read-out: Plant response rating, Galium): 40%
pest or weed control at 125 g/ha ([11]; Postemergence, visual injury after approximately 10 d, 0 to 100 scale where 0 is no effect and 100 is complete control, read-out: Plant response rating, Kochia): 50%
pest or weed control at 125 g/ha ([12]; Postemergence, visual injury after approximately 10 d, 0 to 100 scale where 0 is no effect and 100 is complete control, read-out: Plant response rating, Barnyardgrass): 90%
pest or weed control at 125 g/ha ([13]; Postemergence, visual injury after approximately 10 d, 0 to 100 scale where 0 is no effect and 100 is complete control, read-out: Plant response rating, Foxtail, Giant): 80%
pest or weed control at 125 g/ha ([14]; Postemergence, visual injury after approximately 10 d, 0 to 100 scale where 0 is no effect and 100 is complete control, read-out: Plant response rating, Ragweed): 0%
plant injury at 125 g/ha ([15]; Postemergence, visual injury after approximately 10 d, 0 to 100 scale where 0 is no effect and 100 is complete control, read-out: Plant response rating, Wheat): 20%
